The supplement of paper PMC10307832

Legend:
Assay in all cases: relative viability (nuclei count vs DMSO), 5 days (fraction); higher = more cells survive
TGX 221 + Alpelisib = compound: CC1=CN2C(=O)C=C(N=C2C(=C1)C(C)NC3=CC=CC=C3)N4CCOCC4 [TGX 221] + Cc1nc(NC(=O)N2CCC[C@H]2C(N)=O)sc1-c1ccnc(C(C)(C)C(F)(F)F)c1 [Alpelisib] (partner 2 µM)
Outline: (§1)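 Nuclei were stained with Hoechst during a one-step fixation (final 0.05% Triton X-100, 1% formaldehyde, 1 ug/ml Hoechst) carried out 5 days after dosing, then counted on 4× images. The cells, lung cancer lines in 1536-well plates, had been dosed by pin tool the day after seeding with one drug alone or a fixed anchor-drug dose plus five library-drug doses (not always all listed) in √10 steps. Relative viability is the nuclei count in treated wells divided by that in vehicle wells, and each value is the median of duplicate plates.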

[1] = compound: C1=CC=C(C(=C1)C2=CC=C(C=C2)C3=CSC4=C3C(=C(C(=O)N4)C#N)O)O + Nc1ncn([C@H]2C[C@H](O)[C@@H](CO)O2)c(=O)n1 [Decitabine] (partner 2 µM)
Outline: as §1

[2] = compound: O=C(CCCCCCNC(=O)c1cnc(N(c2ccccc2)c2ccccc2)nc1)NO [Ricolinostat] + Nc1nc2[nH]cc(CCc3ccc(C(=O)N[C@@H](CCC(=O)O)C(=O)O)cc3)c2c(=O)[nH]1 [Pemetrexed] (partner 0.2 µM)
Outline: as §1

Ricolinostat + OSI-027 = compound: O=C(CCCCCCNC(=O)c1cnc(N(c2ccccc2)c2ccccc2)nc1)NO [Ricolinostat] + COc1cccc2cc(-c3nc([C@H]4CC[C@H](C(=O)O)CC4)n4ncnc(N)c34)[nH]c12 [OSI-027] (partner 0.5 µM)
Outline: as §1

[3] = compound: C1=CC=C(C(=C1)C2=CC=C(C=C2)C3=CSC4=C3C(=C(C(=O)N4)C#N)O)O + CC(=O)Nc1cccc(-n2c(=O)n(C3CC3)c(=O)c3c(Nc4ccc(I)cc4F)n(C)c(=O)c(C)c32)c1 [Trametinib] (partner 0.02 µM)
Outline: as §1

Cell Line: NCI-H1792
- relative viability (TGX 221 + Alpelisib; first compound 0.08 µM): 0.609
- relative viability (TGX 221 + Alpelisib; first compound 0.253 µM): 0.599
- relative viability (TGX 221 + Alpelisib; first compound 0.8 µM): 0.698
- relative viability (TGX 221 + Alpelisib; first compound 2.53 µM): 0.511
- relative viability (TGX 221 + Alpelisib; first compound 8 µM): 0.432
- relative viability ([1]; first compound 0.253 µM): 0.715
- relative viability ([1]; first compound 0.8 µM): 0.482
- relative viability ([1]; first compound 2.53 µM): 0.617
- relative viability ([1]; first compound 8 µM): 0.438
- relative viability ([2]; first compound 0.253 µM): 0.92
- relative viability ([2]; first compound 0.8 µM): 0.59
- relative viability ([2]; first compound 2.53 µM): 0.415
- relative viability (Ricolinostat + OSI-027; first compound 0.253 µM): 0.709
- relative viability (Ricolinostat + OSI-027; first compound 0.8 µM): 0.693
- relative viability (Ricolinostat + OSI-027; first compound 2.53 µM): 0.759
- relative viability ([3]; first compound 0.253 µM): 0.536
- relative viability ([3]; first compound 0.8 µM): 0.424
- relative viability ([3]; first compound 2.53 µM): 0.364
- relative viability ([3]; first compound 8 µM): 0.165
